# Reference: US8802597B2, “Herbicidal pyrimidines” (E I du Pont de Nemours and Company, priority 2003, dated 2014)
# What was measured:
# Assay in all cases: Test C pre/postemergence
# Type in all cases: in vivo
# [1] = test system: cocklebur (Xanthium strumarium); conditions: for Plant response rating, Cocklebur: Preemergence
# Excerpt: (§1) Seeds or nutlets of plant species selected from bermudagrass (Cynodon dactylon), Surinam grass (Brachiaria decumbens), cocklebur (Xanthium strumarium), corn (Zea mays), crabgrass (Digitaria sanguinalis), woolly cupgrass (Eriochloa villosa), giant foxtail (Setaria faberii), goosegrass (Eleusine indica), johnsongrass (Sorghum halepense), kochia (Kochia scoparia), lambsquarters (Chenopodium album), morningglory (Ipomoea coccinea), eastern black nightshade (Solanum ptycanthum), yellow nutsedge (Cyperus esculentus), pigweed (Amaranthus retroflexus), common ragweed (Ambrosia elatior), soybean (Glycine max), common (oilseed) sunflower (Helianthus annuus), and velvetleaf (Abutilon theophrasti) were planted and treated preemergence with test chemicals formulated in a non-phytotoxic solvent mixture which included a surfactant.
# (§2) At the same time, plants selected from these crop and weed species and also winter barley (Hordeum vulgare), blackgrass (Alopecurus myosuroides), canarygrass (Phalaris minor), chickweed (Stellaria media), downy brome (Bromus tectorum), green foxtail (Setaria viridis), Italian ryegrass (Lolium multiflorum), wheat (Triticum aestivum), wild oat (Avena fatua) and windgrass (Apera spica-venti) were treated with postemergence applications of some of the test chemicals formulated in the same manner. Plants ranged in height from 2 to 18 cm (1- to 4-leaf stage) for postemergence treatments. Plant species in the flooded paddy test consisted of rice (Oryza sativa), umbrella sedge (Cyperus difformis), duck salad (Heteranthera limosa) and barnyardgrass (Echinochloa crus-galli) grown to the 2-leaf stage for testing. Treated plants and controls were maintained in a greenhouse for 12 to 14 days, after which time all species were compared to controls and visually evaluated. Plant response ratings, summarized in Table C, are based on a scale of 0 to 100 where 0 is no effect and 100 is complete control. A dash (-) response means no test result.
# kochia (Kochia scoparia) = conditions: for Plant response rating, Kochia: Preemergence
# Excerpt: as §1, §2
# [2] = test system: pigweed (Amaranthus retroflexus); conditions: for Plant response rating, Pigweed: Preemergence
# Excerpt: as §1, §2
# [3] = test system: crabgrass (Digitaria sanguinalis); conditions: for Plant response rating, Crabgrass: Preemergence
# Excerpt: as §1, §2
# [4] = test system: johnsongrass (Sorghum halepense); conditions: for Plant response rating, Johnsongrass: Preemergence
# Excerpt: as §1, §2
# [5] = Postemergence, 62 g ai/ha, scale 0 to 100 (0 no effect, 100 complete control)
# [6] = Postemergence, 125 g ai/ha, scale 0 to 100 (0 no effect, 100 complete control)
# [7] = 16 g ai/ha, scale 0 to 100, 0 no effect, 100 complete control
# [8] = 31 g ai/ha, scale 0 to 100, 0 no effect, 100 complete control
# [9] = 62 g ai/ha, scale 0 to 100, 0 no effect, 100 complete control
smiles,measurement,setting,value
CCOC(=O)c1nc(C2CC2)nc(NN)c1Br [Compound 42],pest or weed control at 31 g/ha,"[1]; Xanthium strumarium, post-emergence, Postemergence, 31 g ai/ha, read-out: Plant response rating (scale of 0 to 100), Cocklebur",0%
same,pest or weed control at 62 g/ha,"[1]; Xanthium strumarium, post-emergence, Postemergence, 62 g ai/ha, scale 0 to 100 (0 no effect, 100 complete control), read-out: Cocklebur plant response rating",0%
same,pest or weed control at 125 g/ha,"[1]; Xanthium strumarium, post-emergence, Postemergence, 125 g ai/ha, scale 0 to 100 (0 no effect, 100 complete control), read-out: Cocklebur plant response rating",5%
same,pest or weed control at 250 g/ha,"[1]; Xanthium strumarium, post-emergence, Postemergence, 250 g ai/ha, scale 0 to 100, read-out: Plant response rating, Cocklebur",20%
same,pest or weed control at 31 g/ha,"kochia (Kochia scoparia); Bassia scoparia, post-emergence, Postemergence, 31 g ai/ha, read-out: Plant response rating (scale of 0 to 100), Kochia",5%
same,pest or weed control at 62 g/ha,"kochia (Kochia scoparia); Bassia scoparia, post-emergence, Postemergence, 62 g ai/ha, scale 0 to 100 (0 no effect, 100 complete control), read-out: Kochia plant response rating",30%
same,pest or weed control at 125 g/ha,"kochia (Kochia scoparia); Bassia scoparia, post-emergence, Postemergence, 125 g ai/ha, scale 0 to 100 (0 no effect, 100 complete control), read-out: Kochia plant response rating",50%
same,pest or weed control at 250 g/ha,"kochia (Kochia scoparia); Bassia scoparia, post-emergence, Postemergence, 250 g ai/ha, scale 0 to 100, read-out: Plant response rating, Kochia",85%
same,pest or weed control at 31 g/ha,"[2]; Amaranthus retroflexus, post-emergence, Postemergence, 31 g ai/ha, read-out: Plant response rating (scale of 0 to 100), Pigweed",10%
same,pest or weed control at 62 g/ha,"[2]; Amaranthus retroflexus, post-emergence, Postemergence, 62 g ai/ha, scale 0 to 100 (0 no effect, 100 complete control), read-out: Pigweed plant response rating",10%
same,pest or weed control at 125 g/ha,"[2]; Amaranthus retroflexus, post-emergence, Postemergence, 125 g ai/ha, scale 0 to 100 (0 no effect, 100 complete control), read-out: Pigweed plant response rating",20%
same,pest or weed control at 250 g/ha,"[2]; Amaranthus retroflexus, post-emergence, Postemergence, 250 g ai/ha, scale 0 to 100, read-out: Plant response rating, Pigweed",30%
same,pest or weed control at 31 g/ha,"[3]; Digitaria sanguinalis, post-emergence, Postemergence, 31 g ai/ha, read-out: Plant response rating (scale of 0 to 100), Crabgrass",0%
same,pest or weed control at 62 g/ha,"[3]; Digitaria sanguinalis, post-emergence, Postemergence, 62 g ai/ha, scale 0 to 100 (0 no effect, 100 complete control), read-out: Crabgrass plant response rating",0%
same,pest or weed control at 125 g/ha,"[3]; Digitaria sanguinalis, post-emergence, Postemergence, 125 g ai/ha, scale 0 to 100 (0 no effect, 100 complete control), read-out: Crabgrass plant response rating",0%
same,pest or weed control at 250 g/ha,"[3]; Digitaria sanguinalis, post-emergence, Postemergence, 250 g ai/ha, scale 0 to 100, read-out: Plant response rating, Crabgrass",0%
same,pest or weed control at 31 g/ha,"[4]; Sorghum halepense, post-emergence, Postemergence, 31 g ai/ha, read-out: Plant response rating (scale of 0 to 100), Johnsongrass",0%
same,pest or weed control at 62 g/ha,"[4]; Sorghum halepense, post-emergence, Postemergence, 62 g ai/ha, scale 0 to 100 (0 no effect, 100 complete control), read-out: Johnsongrass plant response rating",0%
same,pest or weed control at 125 g/ha,"[4]; Sorghum halepense, post-emergence, Postemergence, 125 g ai/ha, scale 0 to 100 (0 no effect, 100 complete control), read-out: Johnsongrass plant response rating",0%
same,pest or weed control at 250 g/ha,"[4]; Sorghum halepense, post-emergence, Postemergence, 250 g ai/ha, scale 0 to 100, read-out: Plant response rating, Johnsongrass",10%
CCOC(=O)C(OC(C)=O)c1nc(C2CC2)nc(N)c1Br (stereo not drawn) [Compound 47],"Plant response rating (scale of 0 to 100), Cocklebur","[1]; Postemergence, 16 g ai/ha",35
same,"Plant response rating (scale of 0 to 100), Cocklebur","[1]; Postemergence, 31 g ai/ha",45
same,Cocklebur plant response rating,[1]; [5],60
same,Cocklebur plant response rating,[1]; [6],65
same,"Plant response rating, Cocklebur",[1]; [7],0
same,"Plant response rating, Cocklebur",[1]; [8],0
same,"Plant response rating, Cocklebur",[1]; [9],70
same,"Plant response rating, Cocklebur","[1]; 125 g ai/ha, scale 0 to 100",75
same,"Plant response rating (scale of 0 to 100), Kochia","kochia (Kochia scoparia); Postemergence, 16 g ai/ha",0
same,"Plant response rating (scale of 0 to 100), Kochia","kochia (Kochia scoparia); Postemergence, 31 g ai/ha",0
same,Kochia plant response rating,kochia (Kochia scoparia); [5],20
same,Kochia plant response rating,kochia (Kochia scoparia); [6],100
same,"Plant response rating, Kochia",kochia (Kochia scoparia); [7],0
same,"Plant response rating, Kochia",kochia (Kochia scoparia); [9],0
same,"Plant response rating, Kochia","kochia (Kochia scoparia); 125 g ai/ha, scale 0 to 100",100
same,"Plant response rating (scale of 0 to 100), Pigweed","[2]; Postemergence, 16 g ai/ha",0
same,"Plant response rating (scale of 0 to 100), Pigweed","[2]; Postemergence, 31 g ai/ha",15
same,Pigweed plant response rating,[2]; [5],45
same,Pigweed plant response rating,[2]; [6],70
same,"Plant response rating, Pigweed",[2]; [7],0
same,"Plant response rating, Pigweed",[2]; [8],80
same,"Plant response rating, Pigweed",[2]; [9],85
same,"Plant response rating, Pigweed","[2]; 125 g ai/ha, scale 0 to 100",85
same,"Plant response rating (scale of 0 to 100), Crabgrass","[3]; Postemergence, 16 g ai/ha",0
same,"Plant response rating (scale of 0 to 100), Crabgrass","[3]; Postemergence, 31 g ai/ha",0
same,Crabgrass plant response rating,[3]; [5],0
same,Crabgrass plant response rating,[3]; [6],20
same,"Plant response rating, Crabgrass",[3]; [7],20
same,"Plant response rating, Crabgrass",[3]; [8],100
same,"Plant response rating, Crabgrass",[3]; [9],100
same,"Plant response rating, Crabgrass","[3]; 125 g ai/ha, scale 0 to 100",100
same,Johnsongrass plant response rating,[4]; [5],0
same,Johnsongrass plant response rating,[4]; [6],0
same,"Plant response rating, Johnsongrass",[4]; [7],0
same,"Plant response rating, Johnsongrass",[4]; [8],0
same,"Plant response rating, Johnsongrass",[4]; [9],0
same,"Plant response rating, Johnsongrass","[4]; 125 g ai/ha, scale 0 to 100",0
